# Assay results taken from patent US20260014173A1, “Nutritional composition for stroke” (N.V. Nutricia, priority 2022, published 2026).
# Key:
# [1] = system: PC12 pheochromocytoma cells; assay: Neurite outgrowth in in vitro PC12 neuronal cell model (NGF, no hypoxia), Examples 5 and 6; format: cell-based; settings: total concentration of 20 μM choline from chol-CI, PC or both, control set at 100%
# Description: The effects of nutrient supplementation on neurite outgrowth parameters in PC12 pheochromocytoma cells was also assessed.
# PC12 pheochromocytoma cells were grown in DMEM (Gibco), supplemented with 10% fetal bovine serum (FBS), penicillin (100 units/ml), and streptomycin (100 μg/ml) (Gibco), under a humidified atmosphere with 95% air and 5% CO2 at 37° C. Cells were seeded in collagen (0.01 mg/ml) coated 96 well plates at a density of 5000 cells/well and after 24 hours supplemented with medium containing 20 ng/ml nerve growth factor (NGF) with or without coenzyme Q10 (1 μM), vitamin D3 ((0.25 μM), vitamin B2 (0.5 μM), DHA (6.7 μM), a source of choline (20 μM phosphatidylcholine, PC) or a mixture thereof.
# In the PC12 experiments the cells were not exposed to hypoxia.
# Docosahexaenoic acid (DHA) was resuspended in absolute ethanol and diluted 5 times in fetal bovine serum. All compounds were purchased from Sigma (Zwijndrecht, The Netherlands).
# Supplementation of cells was performed in 6-fold in 96 wells plates. These conditions were compared to non-supplemented cells. After supplementation for 48 hours with these combinations, cells were stained using Calcein-AM stain (2 ng/μl) and the nuclei were counterstained using Hoechst stain (0.6 μg/ml), in 100 μl culture medium per well and incubated for 20 min at 37° C. Subsequently, FITC and DAPI images (9 images per well for 96 wells plate) were taken using an ImageXpress high content imaging system. Neurite length was quantified using the neurite outgrowth module in MetaXpress.
# Nutrients were supplemented alone (100% chol-CI or 100% PC) and in a ratio of 60:40 and 40:60 of chol-CI to PC. Supplementation of cells was performed in 6-fold in 96 wells plates at a total concentration of 20 μM choline, derived from chol-CI, from PC, or from both. The neurite outgrowth in these conditions were compared to non-supplemented PC12 cells.
# [2] = system: Mouse primary cortical neurons (E14); assay: Neurite outgrowth after hypoxia (oxygen glucose deprivation), cortical neuronal cultures, Example 3; format: cell-based; settings: OGD 3.5 hrs; vitamin D3 30 nM, co-enzyme Q10 3 μM, vitamin B2 30 nM, alone or combined; supplemented immediately after OGD for 24 hrs; control set at 100%
# Description: Mouse primary cortical neurons (E14) were seeded onto 96-well plates coated with poly-D-lysine. Cells (20.000 cells/well) were cultured in modified Neurobasal medium (containing B27, Pen/Strep, and GlutaMAX). Cell cultures were incubated at 37° C. in 5% CO2 and medium was replaced every 2-3 days. At day 2 of in vitro culturing, cells underwent oxygen glucose deprivation (OGD) for 3.5 hrs. In order to induce glucose deprivation, modified Neurobasal medium was replaced with an equivalent volume of HBSS. For hypoxia, cells were placed in a humidity-controlled incubator (Whitley H35 Hypoxystation) set to 0.5% O2, 94.5% N2 and 5% CO2 at 37° C. for 3.5 hrs. After the hypoxic incubation period, HBSS was removed and replaced with modified Neurobasal medium, and plates returned to normoxic conditions and incubated at 37° C. in 5% CO2 for an additional 24 hrs. […] Nutrients were supplemented either alone, in combination of two, or in combination of three, starting immediately after the OGD and lasting for another 24 hrs. Every condition was tested in triplicate. […] At the end of the experiment, plates were fixed PFA for 5 min at room temperature. Then, cells were permeabilized and blocked using PBS containing 10% normal goat serum, 0.1% sodium azide and 0.2% Triton X-100. Cells were stained overnight with a monoclonal anti-beta-tubulin III antibody (Sigma Aldrich, T8578). Next, cells were stained with the secondary antibody Alexa Fluor 488 Goat anti-Mouse IgG (H+L) (Invitrogen A11001 Fisher, 10256302). Nuclei were stained with Hoechst 33342 (Thermofisher, H3570). Images were taken at a magnification of 20× in 12 fields of view using In Cell Analyser 2000.
Compound,neurite outgrowth compared to unsupplemented control PC12 cells [1],neurite outgrowth compared to unsupplemented control PC12 cells ([1]; listed as PC),neurite outgrowth after hypoxia relative to control [2]
phosphatidylcholine [100% PC],increases neurite outgrowth slightly more than supplementation with 100% chol-CI,slightly better effect on neurite outgrowth than choline chloride,–
"C=C1CC[C@H](O)C/C1=C/C=C1\CCC[C@]2(C)[C@@H]([C@H](C)CCCC(C)C)CC[C@@H]12 [vitamin D3, cholecalciferol]",–,–,did not affect neurite outgrowth
"Cc1cc2nc3c(=O)[nH]c(=O)nc-3n(C[C@H](O)[C@H](O)[C@H](O)CO)c2cc1C [vitamin B2, riboflavin]",–,–,did not affect neurite outgrowth
"COC1=C(OC)C(=O)C(C/C=C(\C)CC/C=C(\C)CC/C=C(\C)CC/C=C(\C)CC/C=C(\C)CC/C=C(\C)CC/C=C(\C)CC/C=C(\C)CC/C=C(\C)CCC=C(C)C)=C(C)C1=O [co-enzyme Q10, 2,3 dimethoxy-5 methyl-6-decaprenyl benzoquinone]",–,–,did not affect neurite outgrowth
"C[N+](C)(C)CCO.[Cl-] [100% chol-CI, choline chloride]",improved neurite outgrowth,–,–
